This passage reports logFC.mWT.over.mEQ results from patent US20240368668A1, “SUBSTRATES AND BIOMARKERS OF ADAMTS7” (The Broad Institute, Inc., priority 2021, published 2024).

Square brackets hold non-standard residues; d marks the D form. Ends that are not written are not given here.

The first experiment deals with mouse ADAMTS7. Nature of the experiment: TMT10 TAILS N-terminomics, SMC2 experiment (process replicates, trypsin/AspN digest). The format is cell-based. As to conditions: SMC2_TAILS HC; log fold change of N-terminal peptide, Ad-mADAMTS7 WT over EQ. An excerpt: ADAMTS7 Expression, Cell Culture and Preparation of the Secreted Proteins—Full-length mouse Adamts7 1-1857 (Uniprot Q68SA9, WT or E373Q catalytic mutant) with a carboxyl terminal 3xFLAG tag was used to generate custom adenoviruses as previously described. Adeno-CMV-Luciferase (Ad-Luc) from Vector Biolabs was used as a negative control. Human Coronary Artery Smooth Muscle Cells (HCA-SMC) were obtained from Lonza and expanded in Lonza SmGM-2 media in 15 cm tissue culture plates. Twenty-four hours before media collection, near confluent plates were transduced with 50 MOI adenovirus and switched to Lonza Basal SM media with volumes of 20 ml per 15 cm plate. Expression of the Flag tagged ADAMTS7 was confirmed from the media using western blot and detected using the anti-Flag M2-HRP antibody (Sigma, A8592). Collected media was processed by adding protease inhibitors (1 mM EDTA and 1 mM PMSF) and clarified by 500 g×5 min spin at 4 C to pellet cell debris. Cell media supernatants were then passed through a 0.22 um filter and kept chilled. Processed media was then concentrated 50-100× using 3 kDa Centricon Plus-70 filter unit, spun at 3,500 g×60 min at 4 C. Approximately 10% of the processed, concentrated media was set aside for total secretome proteolytic analysis. The remaining 90% of the processed, concentrated media was buffer exchanged into 50 mM HEPES pH 8.0, 150 mM NaCl (2×50 ml) using the 3 kDa Centricon Plus-70 filter unit and concentrated to >2 mg/ml to serve as input for the TAILS experiment. Secretome and TAILS input samples were stored at −80° C.
For the first experiment, referred to as SMC1, 120 ml of media from 6×15 cm dishes was pooled from each condition (Luc, WT, EQ) and processed to produce three separate inputs for the TAILS experiment. Luc, WT and EQ inputs from the SMC1 experiment were each divided into triplicate 400 ug samples to generate technical replicate TAILS data. For the second experiment, referred to as SMC2, media was processed separately in triplicate for each condition (Luc1, Luc2, Luc3, WT1, WT2, WT3, EQ1, EQ2, EQ3) using 60 ml of media from 3×15 cm dishes for each process replicate. Inputs from the SMC2 experiment used process replicates of 300 ug each to generate TAILS data. The third experiment used input from cultured Human umbilical vein endothelial cells (HUVEC) from Lifeline Cell Technology grown in VascuLife Media and transduced in Lifeline Basal EC (+bFGF2 10 ng/ml). The HUVEC experiment used the same strategy as the SMC2 experiment, with 40 ml of media from 2×15 cm dishes for each process replicate and used 200 ug each to generate TAILS data. Inputs for process replicate experiments were restricted to the lowest concentration from the 9 parallel samples for SMC2 or HUVEC.
TMT10 isotopic labeling and negative selection of non-labeled peptides-Sample preparation was performed based on the TAILS protocol from the Overall lab with some modifications. From a single experiment, nine parallel protein samples in 50 mM HEPES pH 8.0, 150 mM NaCl were separately denatured with guanidinium chloride (Sigma, G4505) to reach a final concentration of 2.5M guanidinium chloride and 250 mM HEPES and incubated at 65° C. for 15 min. Reduction was achieved through addition of tris(2-carboxylethyl) phosphine (TCEP) at a final concentration of […] and incubated at 65° C. for 45 min. Alkylation reaction was performed with addition of iodoacetamide (IAA, Sigma, A3221) to a final concentration of 10 mM IAA for 15 min at room temperature in the dark. Following denaturation, reduction and alkylation steps, ten percent of each of the nine parallel protein samples was removed and combined to serve as a pooled reference. Isobaric tags were added to free amine groups using the TMT10plex Isobaric Mass Tagging Kit (ThermoFisher, 90113) with TMT channels randomly assigned to the nine samples and TMT 131 assigned to the pooled reference. […]
As for “LOXL1_219 (VASAGVIYPYQPR; listed as Homo sapiens)”, the logFC.mWT.over.mEQ is 1.47. On the same count and under the same terms, the same measure for “LOXL2_37 (FQQPAPEYHQPQAPANVAKIQLR; listed as Homo sapiens)”: 3.30; for “LOXL2_38 ([code q]QPAPEYHQPQAPANVAKIQLR; not fully specified; listed as Homo sapiens)”: 1.68. Substance “LTBP1_393 (LTATNFR; listed as Homo sapiens)” displayed a logFC.mWT.over.mEQ of 6.30. With “LTBP1_540 (HQQVIPHVYPVAAKTQLGR; listed as Homo sapiens)”, the logFC.mWT.over.mEQ was found to be 1.77.

The experiment is the same for the next values; noted with them: SMC2_TAILS HC; log fold change, mWT over mEQ.
“AEBP1_37 (FLEGFLSELEPEPR; listed as Homo sapiens)” gave a logFC.mWT.over.mEQ of 3.48.

Substance “CCDC80_66 (LEEPNLQPLQR; listed as Homo sapiens)” showed a logFC.mWT.over.mEQ of 2.21. Same read-out and setting: the same measure for “EFEMP1_124 (AVAGPEMQTGR; listed as Homo sapiens)”: 3.27; for “EFEMP1_125 (VAGPEMQTGR; listed as Homo sapiens)”: 2.42. Same read-out and setting: the same measure for “FBLN2_259 (ALGPPAPVQAKAR; listed as Homo sapiens)”: 1.88; for “FBLN2_260 (LGPPAPVQAKAR; listed as Homo sapiens)”: 2.42; for “FBN1_29 (LEAGNVKETR; listed as Homo sapiens)”: 3.57. On the same count and under the same terms, to “FBN1_53 (LKGPNVCGSR; listed as Homo sapiens)” belongs 4.89; to “FLNA_1285 (LTQTGGPHVKAR; listed as Homo sapiens)”, 5.72.

Substance “FN1_36 (MVQPQSPVAVSQSKPGCYDNGKHYQINQQWER; listed as Homo sapiens)” registered a logFC.mWT.over.mEQ of 3.69. In turn, “FN1_40 (QSPVAVSQSKPGCYDNGKHYQINQQWER; listed as Homo sapiens)” gave a logFC.mWT.over.mEQ of 2.66. Substance “FN1_1143 (LTPGVEYVYTIQVLR; listed as Homo sapiens)” came in with a logFC.mWT.over.mEQ of 2.80. On the same count and under the same terms, to “FN1_1656 (SSSPVTGYR; listed as Homo sapiens)” belongs 1.86. The same measure, in the same setting: to “GSN_413 (HIANVER; listed as Homo sapiens)” belongs 1.74; to “HSPG2_275 (LLPGSVR; listed as Homo sapiens)”, 2.10; to “HSPG2_2331 (ANLAYPAGSTQPIR; listed as Homo sapiens)”, 1.91.

The substance “HSPG2_2333 (LAYPAGSTQPIR; listed as Homo sapiens)” had a logFC.mWT.over.mEQ of 1.41. Still for that read-out and setting: to “IGFBP3_31 (SAGLGPVVR; listed as Homo sapiens)” belongs 2.44; to “IGFBP3_32 (AGLGPVVR; listed as Homo sapiens)”, 5.18. “IGFBP7_101 (AAGGPGVSGVCVCKSR; listed as Homo sapiens)” showed a logFC.mWT.over.mEQ of 2.57.

For the substance “LOX_58 (LSLGSQYQPQR; listed as Homo sapiens)”, the logFC.mWT.over.mEQ was determined as 1.77. Same read-out and setting: the same measure for “LOX_123 (HWFQAGYSTSR; listed as Homo sapiens)”: 1.37. Still for that read-out and setting: to “LOX_124 (WFQAGYSTSR; listed as Homo sapiens)” belongs 3.45; to “LOX_126 (QAGYSTSR; listed as Homo sapiens)”, 3.03.
